Experimental data from patent publication US8501794B2, “Compounds as cannabinoid receptor ligands” (priority 2007, dated 2013).

Key:
human CB2 receptors = target: T1, human CB2 receptors (Homo sapiens, UniProt P34972); experiment: human CB2 radioligand binding assay ([3H]CP-55,940 competition)
T1 construct: expressed in transfected cells; host or cells: HEK293

rat CB2 [1] = target: T2, rat CB2 (Rattus norvegicus, UniProt Q9QZN9); experiment: rat CB2 cyclase functional assay (HitHunter cAMP, HEK cells); type: cell-based; parameters: expressed in transfected cells; host or cells: HEK; conditions: forskolin 18 μM
T2 sequence (Q9QZN9 1-360): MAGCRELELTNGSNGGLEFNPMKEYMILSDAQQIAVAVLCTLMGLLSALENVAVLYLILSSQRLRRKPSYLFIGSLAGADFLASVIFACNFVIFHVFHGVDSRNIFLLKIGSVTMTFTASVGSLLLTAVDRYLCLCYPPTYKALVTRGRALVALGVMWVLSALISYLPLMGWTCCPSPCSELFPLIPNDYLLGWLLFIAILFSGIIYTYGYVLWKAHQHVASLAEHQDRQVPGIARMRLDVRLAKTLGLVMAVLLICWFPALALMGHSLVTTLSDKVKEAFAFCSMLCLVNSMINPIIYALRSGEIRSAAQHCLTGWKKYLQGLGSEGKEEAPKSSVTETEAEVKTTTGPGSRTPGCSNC

rat CB2 [2] = target: T2, rat CB2; experiment: rat CB2 radioligand binding assay ([3H]CP-55,940 competition); parameters: expressed in transfected cells; host or cells: HEK293

T1 sequence (P34972 whole entry): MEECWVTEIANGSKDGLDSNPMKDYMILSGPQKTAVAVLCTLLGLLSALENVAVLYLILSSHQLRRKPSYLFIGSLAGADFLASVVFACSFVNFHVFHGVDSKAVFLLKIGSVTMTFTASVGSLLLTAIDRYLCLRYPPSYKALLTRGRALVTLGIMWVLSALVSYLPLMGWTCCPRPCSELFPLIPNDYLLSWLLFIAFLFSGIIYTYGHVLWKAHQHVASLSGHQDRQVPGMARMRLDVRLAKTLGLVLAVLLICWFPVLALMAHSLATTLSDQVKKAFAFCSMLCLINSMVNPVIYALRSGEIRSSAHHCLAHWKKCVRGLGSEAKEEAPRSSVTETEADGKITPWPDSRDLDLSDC

Row | Compound | Ki (human CB2 receptors) | EC50 (rat CB2 [1]) | Ki (rat CB2 [2])
1 | CCCCc1cn(C(C)(C)C)s/c1=N\C(=O)C1(C)CCC(C(=O)OC)C1(C)C (racemic) [Example 92, Methyl 3-({[(5Z)-4-butyl-2-tert-butylisothiazol-5(2H)-ylidene]amino}carbonyl)-2,2,3-trimethylcyclopentanecarboxylate] | 0.2 nM | 0.45 nM | 0.25 nM
2 | CCCCc1cn(C(C)(C)C)s/c1=N\C(=O)c1cc(Cl)ccc1OC [Example 1, N-[(5Z)-4-butyl-2-tert-butylisothiazol-5(2H)-ylidene]-5-chloro-2-methoxybenzamide] | 16 nM | 0.72 nM | 1.5 nM
3 | C=CCc1cn(C(C)(C)C)s/c1=N\C(=O)c1cc(Cl)ccc1OC [Example 6, N-[(5Z)-4-allyl-2-tert-butylisothiazol-5(2H)-ylidene]-5-chloro-2-methoxybenzamide] | 210 nM | 2.4 nM | 16 nM
4 | COc1ccc(Cl)cc1C(=O)/N=c1\sn(C(C)(C)C)cc1CC1CC(C)=NO1 (stereo not shown) [Example 7] | 370 nM | 2.7 nM | 8.8 nM
5 | COc1ccc(Cl)cc1C(=O)/N=c1\sn(C(C)(C)C)cc1CC1CC1 [Example 8, N-[(5Z)-2-tert-butyl-4-(cyclopropylmethyl)isothiazol-5(2H)-ylidene]-5-chloro-2-methoxybenzamide] | 4 nM | 1 nM | 1.1 nM
6 | COc1ccc(Cl)cc1C(=O)/N=c1\sn(C(C)(C)C)cc1CCN=[N+]=[N-] [Example 14, N-[(5Z)-4-(2-azidoethyl)-2-tert-butylisothiazol-5(2H)-ylidene]-5-chloro-2-methoxybenzamide] | 26 nM | 0.71 nM | 2.4 nM
7 | CON=CCCc1cn(C(C)(C)C)s/c1=N\C(=O)c1cc(Cl)ccc1OC [Example 15, N-[(5Z)-2-tert-butyl-4-[3-(methoxyimino)propyl]isothiazol-5(2H)-ylidene]-5-chloro-2-methoxybenzamide] | 170 nM | 1.1 nM | 15 nM
8 | COc1ccc(Cl)cc1C(=O)/N=c1\sn(C(C)(C)C)cc1CCC(C)O (stereo not shown) [Example 18, N-[(5Z)-2-tert-butyl-4-(3-hydroxybutyl)isothiazol-5(2H)-ylidene]-5-chloro-2-methoxybenzamide] | 86 nM | 2.7 nM | 4.3 nM
9 | COc1ccc(Cl)cc1C(=O)/N=c1\sn(C(C)(C)C)cc1CCC#N [Example 19, N-[(5Z)-2-tert-butyl-4-(2-cyanoethyl)isothiazol-5(2H)-ylidene]-5-chloro-2-methoxybenzamide] | 44 nM | 0.57 nM | 7.1 nM
10 | COc1ccc(Cl)cc1C(=O)/N=c1\sn(C(C)(C)C)cc1CC1OCCO1 [Example 22, N-[(5Z)-2-tert-butyl-4-(1,3-dioxolan-2-ylmethyl)isothiazol-5(2H)-ylidene]-5-chloro-2-methoxybenzamide] | 67 nM | 0.24 nM | 6.2 nM
11 | COc1ccc(Cl)cc1C(=O)/N=c1\sn(C(C)(C)C)cc1C(O)C(C)C (stereo not shown) [Example 23, N-[(5Z)-2-tert-butyl-4-(1-hydroxy-2-methylpropyl)isothiazol-5(2H)-ylidene]-5-chloro-2-methoxybenzamide] | 14 nM | 0.89 nM | 2.7 nM
12 | CC/C=C\c1cn(C(C)(C)C)s/c1=N\C(=O)c1cc(Cl)ccc1OC [Example 25, N-[(5Z)-4-[(1Z)-but-1-enyl]-2-tert-butylisothiazol-5(2H)-ylidene]-5-chloro-2-methoxybenzamide] | 51 nM | 1.7 nM | 1.6 nM
13 | CCCCc1cn(C(C)(C)C)s/c1=N\C(=O)c1cc(C#N)ccc1OC [Example 26, N-[(5Z)-4-butyl-2-tert-butylisothiazol-5(2H)-ylidene]-5-cyano-2-methoxybenzamide] | 14 nM | 0.23 nM | 1 nM
14 | CCOCc1cn(C(C)(C)C)s/c1=N\C(=O)c1cc(Cl)ccc1OC [Example 29, N-[(5Z)-2-tert-butyl-4-(ethoxymethyl)isothiazol-5(2H)-ylidene]-5-chloro-2-methoxybenzamide] | 180 nM | 0.41 nM | 13 nM
15 | COc1ccc(Cl)cc1C(=O)/N=c1\sn(C(C)(C)C)cc1CCCC#N [Example 30, N-[(5Z)-2-tert-butyl-4-(3-cyanopropyl)isothiazol-5(2H)-ylidene]-5-chloro-2-methoxybenzamide] | 17 nM | 0.2 nM | 2.6 nM
16 | COc1ccc(Cl)cc1C(=O)/N=c1\sn(C(C)(C)C)cc1C(O)C1CCC1 (stereo not shown) [Example 34, N-[(5Z)-2-tert-butyl-4-[cyclobutyl(hydroxy)methyl]isothiazol-5(2H)-ylidene]-5-chloro-2-methoxybenzamide] | 3.6 nM | 0.4 nM | 1.2 nM

Row | Compound | Ki (human CB2 receptors) | EC50 (rat CB2 [1]) | Ki (rat CB2 [2])
17 | COc1ccc(Cl)cc1C(=O)/N=c1\sn(C(C)(C)C)cc1CCC1CCC1 [Example 36, N-[(5Z)-2-tert-butyl-4-(2-cyclobutylethyl)isothiazol-5(2H)-ylidene]-5-chloro-2-methoxybenzamide] | 1.3 nM | 0.91 nM | 0.16 nM
18 | COc1ccc(Cl)cc1C(=O)/N=c1\sn(C(C)(C)C)cc1CC(C)C [Example 37, N-[(5Z)-2-tert-butyl-4-isobutylisothiazol-5(2H)-ylidene]-5-chloro-2-methoxybenzamide] | 31 nM | 1.3 nM | 5.8 nM
19 | COc1ccc(Cl)cc1C(=O)/N=c1\sn(C(C)(C)C)cc1CC1CCC1 [Example 38, N-[(5Z)-2-tert-butyl-4-(cyclobutylmethyl)isothiazol-5(2H)-ylidene]-5-chloro-2-methoxybenzamide] | 2.5 nM | 1.7 nM | 0.61 nM
20 | COc1ccc(Cl)cc1C(=O)/N=c1\sn(C(C)(C)C)cc1C1CCOCC1 [Example 39, N-[(5Z)-2-tert-butyl-4-tetrahydro-2H-pyran-4-ylisothiazol-5(2H)-ylidene]-5-chloro-2-methoxybenzamide] | 99 nM | 1.6 nM | 26 nM
21 | CCCCc1cn(C(C)(C)C)s/c1=N\C(=O)c1cc(OC)ccc1OC [Example 41, N-[(5Z)-4-butyl-2-tert-butylisothiazol-5(2H)-ylidene]-2,5-dimethoxybenzamide] | 45 nM | 0.21 nM | 6.3 nM
22 | CCCCc1cn(C(C)(C)C)s/c1=N\C(=O)c1cc(F)ccc1OC [Example 42, N-[(5Z)-4-butyl-2-tert-butylisothiazol-5(2H)-ylidene]-5-fluoro-2-methoxybenzamide] | 24 nM | 0.31 nM | 2.3 nM
23 | CCCCc1cn(C(C)(C)C)s/c1=N\C(=O)c1cc(C)ccc1OC [Example 43, N-[(5Z)-4-butyl-2-tert-butylisothiazol-5(2H)-ylidene]-2-methoxy-5-methylbenzamide] | 18 nM | 0.23 nM | 2.6 nM
24 | COC(=O)CCCc1cn(C(C)(C)C)s/c1=N\C(=O)c1cc(C#N)ccc1OC [Example 46, Methyl 4-{(5Z)-2-tert-butyl-5-[(5-cyano-2-methoxybenzoyl)imino]-2,5-dihydroisothiazol-4-yl}butanoate] |  | 0.56 nM | 17 nM
25 | CCCCc1cn(C(C)(C)C)s/c1=N\C(=O)c1cc(S(C)(=O)=O)ccc1OC [Example 48, N-[(5Z)-4-butyl-2-tert-butylisothiazol-5(2H)-ylidene]-2-methoxy-5-(methylsulfonyl)benzamide] |  | 0.56 nM | 22 nM
26 | COc1ccc(Cl)cc1C(=O)/N=c1\sn(C(C)(C)C)cc1Cc1ccco1 [Example 50, N-[(5Z)-2-tert-butyl-4-(2-furylmethyl)isothiazol-5(2H)-ylidene]-5-chloro-2-methoxybenzamide] | 19 nM | 0.13 nM | 2.5 nM
27 | COc1ccc(C#N)cc1C(=O)/N=c1\sn(C(C)(C)C)cc1Cc1ccco1 [Example 51, N-[(5Z)-2-tert-butyl-4-(2-furylmethyl)isothiazol-5(2H)-ylidene]-5-cyano-2-methoxybenzamide] | 140 nM | 0.3 nM | 8.1 nM
28 | COc1ccc(Cl)cc1C(=O)/N=c1\sn(C(C)(C)C)cc1Cc1cscn1 [Example 52, N-[(5Z)-2-tert-butyl-4-(1,3-thiazol-4-ylmethyl)isothiazol-5(2H)-ylidene]-5-chloro-2-methoxybenzamide] | 43 nM | 0.15 nM | 4.8 nM
29 | CCCCc1cn(C(C)(C)C)s/c1=N\C(=O)[C@]1(C)CC[C@H](C(=O)NCCO)C1(C)C [Example 203, (1R,3S)—N^1-[(5Z)-4-butyl-2-tert-butylisothiazol-5(2H)-ylidene]-N^3-(2-hydroxyethyl)-1,2,2-trimethylcyclopentane-1,3-dicarboxamide] | 70 nM | 3.9 nM | 
30 | CCCCc1cn(C(C)(C)C)s/c1=N\C(=O)[C@@H]1CC[C@](C)(C(=O)OC)C1(C)C [Example 204, Methyl (1S,3R)-3-({[(5Z)-4-butyl-2-tert-butylisothiazol-5(2H)-ylidene]amino}carbonyl)-1,2,2-trimethylcyclopentanecarboxylate] | 0.6 nM | 0.34 nM | 
31 | CCCCc1cn(C(C)(C)C)s/c1=N\C(=O)[C@@H]1CC[C@](C)(C(=O)O)C1(C)C [Example 205, (1S,3R)-3-({[(5Z)-4-butyl-2-tert-butylisothiazol-5(2H)-ylidene]amino}carbonyl)-1,2,2-trimethylcyclopentanecarboxylic acid] | 21 nM | 11.7 nM | 
